According to patent US20240108753A1, “NUCLEIC ACID DELIVERY” (NUNTIUS THERAPEUTICS LIMITED, priority 2021, published 2024):

Legend:
HeLa cells [1] = experiment: DNA (pCl-Luc luciferase plasmid) transfection with peptide dendrimer and lipid; type: cell-based, human; details: 0.25 μg pCl-Luc
Procedure: Cell Lines, transfection reagents and plasmids. HeLa cells were maintained in RPMI medium with 10% (v/v) FCS and 1% (v/v) P/S in a humidified atmosphere in 5% CO2 and 37° C. The plasmid pCl-Luc was derived from plasmid pCl (Promega, Southampton, UK) with the luciferase gene inserted. Branched PEI (25 kDa) was purchased from Sigma-Aldrich. Lipofectamine 2000 (L2000) and Lipofectin (DOTMA:DOPE, 1:1 (w/w)) were obtained from Invitrogen. PEI, L2000 and lipofectin were used as positive control transfection agents in accordance with the manufacturer's instructions.
Transfection procedure. 24 hours before transfection, HeLa cells were seeded (10,000 cells in 100 μL/well) in 96 well plates in order to reach 70% confluence. Plasmid transfection complexes were formed by mixing the dendrimers (100 μL, from 60 μg to 105 μg, dependent on N/P ratios) with lipofectin (4 μg; 100 μL). These mixtures were incubated with a pCl-Luc (4 μg; 100 μL) at different N/P ratios in OptiMEM for 30 min at 25° C. Transfection control complexes (PEI, Lipofectin or L2000) (total 100 μL in OptiMEM) were mixed with pCl-Luc (4 μg; 100 μL) at the respective manufacturers' recommended concentrations. For transfection in serum-free medium, before overlaying the DNA complexes on the cells, OptiMEM was added to dilute the complexes, so that each complex contained 0.25 μg DNA in a total volume of 100 μL in one well of a 96 well plate. For transfection in serum medium, before overlaying the DNA complexes on the cells, full growth medium was added to dilute the complexes, so that each complex contained 0.25 μg DNA in a total volume of 100 μL in one well of a 96 well plate. After removing complete media from the cells, the complexes were added to the plates. The plates were incubated for 4 hours at 37° C. Then, the transfection solutions were replaced by full growth media for 24 hours before luciferase activity was assayed.
Transgene expression assay. The cells were washed twice with PBS and incubated with reporter lysis buffer (20 μL, Promega) for 20 min at 4° C., then overnight at −80° C. After the cells were defrosted at room temperature, luciferase assay buffer (100 μL, Promega; prepared according to the manufacturer's protocol) was added to each well. The luminescent product was measured by Relative Light Units (RLU) in a FLUOstar Optima luminometer (BMG Labtech).
Protein content determination. The protein content of each cell lysate was determined by mixing the lysate (20 μL) with Bio-Rad Protein Assay Reagent (180 μL, Bio-Rad, Hemel Hempstead, UK). After incubation of 10 min, the absorbance at 590 nm was measured and converted to protein concentration using a BSA standard curve. RLU per mg of protein represented luciferase activity. The ratio of these two values is the activity per protein unit (in RLU/mg).

Neuro2A cells = experiment: as above; type: cell-based, mouse; details: 0.25 μg pCl-Luc
[2] = Hydrodynamic size, polydispersity index and zeta potential of dendrimer, lipid and mRNA complexes; type: physicochemical; details: DOTMA/DOPE w/w 10:1 to mRNA; for Hydrodynamic size: dendrimer, lipid and mRNA complexes
Procedure: The hydrodynamic size, polydispersity index and Zeta potential was determined for a set of the dendrimers disclosed in Tables 1 and 2.

HeLa cells [3] = experiment: mRNA (eGFP) transfection with peptide dendrimers and DOTMA/DOPE in full growth medium; type: cell-based, human; details: for mRNA transfection efficiency (eGFP), in words: HeLa, full growth medium, DOTMA/DOPE w/w 10:1 to mRNA, relative to G1,2-RL, 3-LR
Procedure: FIG. 28. mRNA transfection of the peptide dendrimers with lipid system in vitro. […] The mRNA used expressed an eGFP reporter gene. Following a 24 hour transfection, the cells were harvested to assay the eGFP expression. The eGFP expression was normalised with the total amount of protein of each transfection. The gene expression level was calculated by normalising the transfection value of the G1,2-RL, 3-LR, DOTMA/DOPE & mRNA treated cells. 1st, 2nd and 3rd generation dendrimers with varying cores and 1st, 2nd, and 3rd generation peptide motifs can transfect cells with mRNA effectively under the tested conditions.
FIG. 29. mRNA transfection of the peptide dendrimers with lipid system in vitro. HeLa cells were transfected with mRNA alone or mRNA with peptide dendrimers and DOTMA/DOPE (w/w=10:1 to mRNA). The N:P ratio of G1,2-RL,3-LR was at 0.16:1 while the N:P ratios of all other dendrimers at 8:1. The mRNA used expressed an eGFP reporter gene. Following a 24 hour transfection, the cells were harvested to assay the eGFP expression. The eGFP expression was normalised with the total amount of protein of each transfection. The gene expression level was calculated by normalising the transfection value of the G1,2-RL, 3-LR, DOTMA/DOPE & mRNA treated cells. 1st, 2nd and 3rd generation dendrimers with varying cores and 1st, 2nd, and 3rd generation peptide motifs can transfect cells with mRNA effectively under the tested conditions.
The effect on the number of generations of dendrimers on mRNA delivery was studied by transfecting HeLa cells in full growth medium conditions.

mice tissue = experiment: In vivo luciferase mRNA expression assays; details: intravenous; N:P 0.15:1 or 8:1; 6 hours
Procedure: Peptide dendrimers were diluted to a respective concentration and mixed with mRNA for a desired NP ratio such as NP=0.15:1 or 8:1. The solution was incubated in room temperature for 10 mins. Lipid such as DOTMA/DOPE was diluted to a respective concentration and mixed with the dendrimer-mRNA complexes for a desired NP ratio such as NP-4.7:1. The solution was incubated in room temperature for 20 mins. When required, the solution would be further diluted before injection.
All animal procedures conducted in our studies complied with UK laws and were inclusive of ethics approval. Female CD-1 mice (n=39) aged 6-8 weeks left to habituate for 1-week upon their arrival. All mice were weighed, and the formulations were delivered intravenously (100 μl) via the tail vein using 30G insulin syringes (BD biosciences).
All mice were imaged 6 hours post injection. BLI was performed using an IVIS Lumina II (Perkin Elmer) Imaging system. Mice were administered D-luciferin (30 mg/mL, XenoLight, Perkin Elmer) at a dose of 150 mg/kg. Mice were anaesthetised 6 mins after receiving D-luciferin in a chamber with 5% isoflurane and then placed on a heated imaging platform while being maintained on 2.5% isoflurane. Mice were imaged 10 min post administration of D-luciferin with an exposure time set to ensure the signal acquired was within an effective detection range (open filter, binning 8, f-stop 1). Bioluminescence signal was quantified by measuring photon flux (photons/s) in the defined region of interest (ROI) using the Living Image software (Perkin Elmer). Following in vivo whole-body imaging, the mice were euthanised, cardiac blood taken, and the tissues extracted for ex vivo imaging. Here each tissue was placed into individual wells of a 24-well imaging plate (black sided, Eppendorf) containing 0.3 mg/mL D-luciferin in PBS). The imaging plate was placed in the centre of imaging platform (Lumina II system) and signal was measured using the acquisition settings detailed above. Finally, the tissues were placed in storage vials and flash frozen in liquid nitrogen.
Mice were injected with a composition comprising DOTMA/DOPE, mRNA encoding luciferase and either G1,2,3-RL, (FIG. 10, top panel; the “G1,2,3-RL, lipid and mRNA formulation”) or G1,2-RL,3-LR (FIG. 10, bottom panel: the “G1,2,3-RL, lipid and mRNA formulation”). Each formulation was prepared and injected at an NP ratio of 8:1 and 0.15:1. Mice were prepared for detection of luciferase expression post injection.

Row | Substance | DNA transfection efficiency (luciferase, normalised to D/D), in words (HeLa cells [1]) | DNA transfection efficiency (luciferase, normalised to D/D), in words (Neuro2A cells) | Polydispersity Index (PDI) ([2]; N:P 0.16:1) | Zeta Potential ([2]; N:P 0.16:1) [mV] | Polydispersity Index (PDI) ([2]; N:P 8:1) | Zeta Potential ([2]; N:P 8:1) [mV] | Hydrodynamic size ([2]; N:P 0.16:1) [nm] | Hydrodynamic size ([2]; N:P 8:1) [nm] | mRNA transfection efficiency (eGFP), in words (HeLa cells [3]) | targeting mRNA delivery to the spleen and lung compared to G1,2-RL, 3-LR (mice tissue) | mRNA transfection efficiency as share of the improved formulation (DOTMA/DOPE w/w=10:1, N:P=0.16:1) (HeLa cells [3]; DOTMA/DOPE w/w=2:1 to mRNA and N:P=20:1) [%]
1 | (K)8(KK)4(KK)2KGSC-NH2 [G1,2,3-K] | not as effective as G1,2,3-KL | not as effective as G1,2,3-KL | – | – | – | – | – | – | – | – | –
2 | (KL)4(KKL)2KGSC-NH2 [G1,2-KL] | higher efficiency than in Neuro2A cells | – | – | – | – | – | – | – | – | – | –
3 | (KL)8(KKL)4(KKL)2KGSA-NH2 [Ala-G1,2,3-KL] | did not affect the transfection results | did not affect the transfection results | – | – | – | – | – | – | – | – | –
4 | (KL)8(KKL)4(KKL)2KKLC-NH2 [G0,1,2,3-KL] | did not affect the transfection results | did not affect the transfection results | – | – | – | – | – | – | – | – | –
5 | (LK)8(KLK)4(KLK)2KGSC-NH2 [G1,2,3-LK] | did not have a significant difference | did not have a significant difference | – | – | – | – | – | – | – | – | –
6 | (LR)2KRHC-NH2 [RHCG1-LR] | – | – | 0.107 | 40 | 0.577 | 35 | 129 | 326 | can transfect cells effectively | – | –
7 | (LR)4(KRL)2KRHC-NH2 [RHCG1-RL, 2-LR] | – | – | 0.155 | 41 | 0.109 | 46 | 117 | 206 | can transfect cells effectively | higher efficiency than the third generation dendrimer G1,2-RL, 3-LR | –
8 | (LR)8(KRL)4(KRL)2KGSCRHCRFWRYM-NH2 [LinearG1,2-RL, 3-LR] | – | – | 0.143 | 42 | 0.289 | 54 | 118 | 62 | transfection efficiency was not affected | – | –
9 | (R)2KRHC-NH2 [RHCG1-R] | – | – | 0.123 | 33 | 0.566 | 45 | 129 | 366 | can transfect cells effectively | – | –
10 | (R)4(KR)2KRHC-NH2 [RHCG1,2-R] | – | – | 0.114 | 37 | 0.252 | 49 | 123 | 172 | can transfect cells effectively | – | –
11 | (RL)4(KRL)2KGSC-NH2 [G1,2-RL] | higher transfection efficiency | higher transfection efficiency | – | – | – | – | – | – | – | – | –
12 | (RR)4(KLL)2KGSC-NH2 [G1-LL, 2-RR] | – | – | 0.124 | 41 | 0.087 | 47 | 135 | 213 | can be used to deliver mRNA | – | 10
13 | (kl)8(kkl)4(kkl)2kgsc-NH2 [D-G1,2,3KL] | did not have any significant impact on transfection | did not have any significant impact on transfection | – | – | – | – | – | – | – | – | –
